Measured values published in patent US20210052566A1, “METHODS FOR TREATING HEPATITIS B VIRUS (HBV) INFECTION” (INSERM (INSTITUT NATIONAL DE LA SANTÉ ET DE LA RECHERCHE …, priority 2018, published 2021).

How the values were obtained:
HDV genotype 1 = experiment: Establishment of HDV infection in dHepaRG (treatment 24 h before and during inoculation); type: cell-based, hepatitis delta virus; conditions: 1C8 10 microM, Entry Inh. 100 nM
Description: (§1) FIG. 1. Experimental outlines. Treatment schemes: (a) Treatments in pre-infection: dHepaRG cells were treated for 24 h (at day −1) with 100 nM of PreS1 peptide (PreS1-pep) or 10 μM of 1C8, or untreated (NT). At day 0, cells were inoculated with HBV (MOI=250) or with HDV (MOI=25) in the presence of drugs for 24 h. For the tenofovir control (TDF at 10 μM), cells were treated at day 1 and 4 post-infection. Supernatant and cells were harvested at day 7 post-infection. (b) Treatments in post-infection: dHepaRG cells were inoculated with HBV (MOI=250) or with HDV (MOI=25). At days 4, 7 and 9 post infection, cells were treated with TDF 10 μM, lamivudine (3TC) at 10 μM, 1C8 10 μM or untreated (NT). Supernatant and cells were harvested at day 11 postinfection.
FIG. 7. Effect of 1C8 on de novo establishment of ccDNA in dHepaRG (genotype D). […] B) HBs and HBe secreted antigens in supernatant were quantiUied by ELISA, whereas HBV DNA contained in virions was quantified by qPCR after viral nucleic acid extraction from supernatant. […] Statistics were done by two-tailed Mann-Whitney test, with following signiUicativity: *P<0.05, **P<0.01, ***P<0.001, ****P<0.0001. nd=not determined.

[1] = biological target: serine/arginine-rich splicing factor 10 (SRSF10) (human) (UniProt O75494); experiment: Strep-Tactin affinity purification of StrepTag-HBc complexes from hepatocyte nuclei, LC-MS/MS
HBV genotype D = experiment: Anti-HBV properties in persistently infected dHepaRG cells, genotype D (post-infection treatment); type: cell-based, Hepatitis B virus; conditions: treated three times with 10 microM
Description: as §1
FIG. 5. Anti-HBV properties of 1C8 in persistently infected dHepaRG cells: genotype D. Differentiated HepaRG were infected with HBV genotype D at a MOI of 100 vge/cell or HDV genotype 1 at a MOI of 10 vge/cell for 7 days before being treated trice every 2-3 days with indicated molecules at a concentration of 10 microM. A) Total DNA and RNA were extracted from cells and subjected to qPCR and RTqPCR to detect HBV cccDNA, total HBV RNA or pregenomic HBV RNA. B) HBs and HBe secreted antigens in supernatant were quantified by ELISA, whereas HBV DNA contained in virions was quantified by qPCR after viral nucleic acid extraction from supernatant. C) Intracellular HDV RNA was quantified by RTqPCR after total RNA extraction from cells. D) Viability was monitored in 1C8-treated (or control treated; puromycin is a positive toxic molecule) cells by CellTiter-Glo® luminescent cell viability assay. Results are the mean+SEM of n=3 performed with 3 different differentiations of HepaRG. Statistics were done by two-tailed Mann-Whitney test, with following significativity: *P<0.05, **P<0.01, ***P<0.001, ****P<0.0001. nd=not determined
Human liver progenitor HepaRG cells were cultured in Williams medium (ThermoFisher) supplemented with 10% of FBS (Perbio), Penicillin/Streptomycin (500 U/mL), glutamine (2 mM), hydrocortisone Upjohn (2.5 mg/L; Serb laboratory), insulin (5 mg/L; Sigma Aldrich). For the differentiation process 2% of DMSO was added to the above-described supplemented Williams medium. […] The multiplicity of infection (MOI; expressed as virus genome equivalent/cell) is indicated in the figure legends, but was of 100 vge/cell if not precised.
From cell culture supernatants, secreted HBe and HBs antigens were quantified by ELISA, using a chemiluminescence immunoassay kit (Autobio, China) following manufacturer's instructions. […]
A HBV standard was used for quantification of extracellular viral DNA and RNA. […]

StrepTag-HBc (core/capsid protein of HBV with a StrepTag at the N terminus), sequence (P03146 whole entry): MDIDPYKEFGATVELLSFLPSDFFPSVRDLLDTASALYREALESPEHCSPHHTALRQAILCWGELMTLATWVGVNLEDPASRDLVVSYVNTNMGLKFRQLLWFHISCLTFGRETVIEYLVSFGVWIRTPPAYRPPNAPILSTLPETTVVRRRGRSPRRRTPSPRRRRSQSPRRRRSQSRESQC
serine/arginine-rich splicing factor 10 (SRSF10) (human), sequence (O75494 whole entry): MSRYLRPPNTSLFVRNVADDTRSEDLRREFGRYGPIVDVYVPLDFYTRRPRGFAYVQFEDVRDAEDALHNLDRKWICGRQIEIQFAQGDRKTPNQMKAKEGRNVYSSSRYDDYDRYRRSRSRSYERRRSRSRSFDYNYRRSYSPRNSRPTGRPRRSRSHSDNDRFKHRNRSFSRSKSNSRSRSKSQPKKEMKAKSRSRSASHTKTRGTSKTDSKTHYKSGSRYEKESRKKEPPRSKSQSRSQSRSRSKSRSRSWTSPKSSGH

Molecule: Entry Inh.: PreS1 peptide, aa 2 to 48 of HBV PreS1 (SEQ ID No 1), N-terminal myristoyl, used for inhibiting HBV entry [reference compound]
- block of the establishment of HDV infections (HDV genotype 1): inhibited

Molecule: StrepTag-HBc (core/capsid protein of HBV with a StrepTag at the N terminus)
- enrichment in HBc complexes [1]: 3000 times

Molecule: C[C@H](Cn1cnc2c(N)ncnc21)OCP(=O)(O)O [tenofovir, reference compound]
- impact on accumulation of intracellular HBV RNA (HBV genotype D): not capable to impact
